Test results taken from PMC8777799, “Anti-α-Glucosidase and Antiglycation Activities of α-Mangostin and New Xanthenone Derivatives: Enzymatic Kinetics and Mechanistic Insights through In Vitro Studies” (Molecules, 2022).

Target: α-glucosidase
Assay: pNPG colorimetric enzyme kinetics (Lineweaver–Burk; IC50 […]), supported by fluorescence quenching and circular dichroism
Format: biochemical, Saccharomyces cerevisiae

Work on `COc1c(O)cc2oc3cc(O)c(CC=C(C)C)c(O)c3c(=O)c2c1CC=C(C)C` [α-mangostin, 1,3,6-trihydroxy-7-methoxy-2,8-bis(3-methylbut-2-en-1-yl)-9H-xanthen-9-one] yielded a Ki of 30.3 µM.
